# From US8080246B2, “Colony stimulating factor 1 receptor (CSF1R) extracellular domain fusion molecules” (Five Prime Therapeutics, Inc., priority 2008, dated 2011)
# Like-named read-outs stand apart in the source and are kept apart here.
# Assays:
# [1] = system: EAE mouse model; settings: for reduction in the EAE clinical score: relative to vehicle
# Description: The CSF1R ECD fusion molecules were also tested for their ability to inhibit MS disease pathology in a mouse model of MS. These experiments used the mouse experimental autoimmune encephalomyelitis (EAE) model, which is widely used as a model of MS in humans. See, for example, Steinman and Zamvil, TRENDS in Immunology, 26(11):565-571 (2005). In the EAE model, disease progression and associated pathology may be measured according to the following EAE clinical score: no clinical disease (Score: 0); tail flaccidity (Score: 1); hind limb weakness (Score: 2); hind limb paralysis (Score: 3); forelimb paralysis or loss of ability to right from supine (stand up from a supine position) (Score: 4); and moribund (near death) or dead (Score: 5). […] The mCSF1R.506-Fc fusion protein (m506) was tested to determine whether it could decrease the EAE clinical scores or body weight loss. The mCSF1R.506-Fc fusion protein (SEQ ID NO.:8) was expressed and purified from the culture media of CHO cells stably transfected with the mCSF1R.506-Fc/pDEF38 plasmid vector as described in Example 2.
# For the EAE mouse model experiments, 60 female C57BL/6 mice, age […], were divided into five groups: • Group 1: Vehicle control (Vehicle) (phosphate buffered saline, PBS), 100 μl, i.p., 3 times a week for up to 7 weeks; • Group 2: Methotrexate positive control (MTX), 10 mg/kg, i.v., q3d for up to 7 weeks; • Group 3: mCSF1R.506-Fc, 1 mg/kg, i.p., 3 times a week for up to 7 weeks; • Group 4: mCSF1R.506-Fc, 10 mg/kg, i.p., 3 times a week for up to 7 weeks; • Group 5: mCSF1R.506-Fc, 20 mg/kg, i.p., 3 times a week for up to 7 weeks.
# Each group consisted of 12 mice. EAE induction was performed according to the following protocol: 300 ug of myelin oligodendrocyte glycoprotein (MOG)35-55 peptide was dissolved in 100 ul PBS and emulsified in an equal volume of complete Freund's adjuvant (CFA) containing 5 mg/ml Mycobacterium tuberculosis H37 RA. The emulsion (200 ul) was injected subcutaneously into the flank of the mice on days 0 and 7. Pertussis toxin (500 ng in 500 ul of PBS; List Biological Labs) was administered intravenously into each tail vein on days 0 and 2.
# The MTX (10 mg/kg) was administered intravenously once every 3 days (q3d) for up to seven weeks starting on day 0; mCSF1R.506-Fc (1 mg/kg, 10 mg/kg, or 20 mg/kg), or vehicle (PBS) was administered intraperitoneally to the EAE mice in a 0.2 ml volume three times per week for 45 days, starting on day 0. The EAE clinical scores were measured prior to each dosing of PBS, MTX, or mCSF1R.506-Fc, using the above-mentioned scoring system. Body weights were recorded on day 0 before treatment was initiated, and were then measured at least twice per week including the day the study was terminated for seven weeks (on days 0, 2, 6, 8, 10, 13, 16, 17, 20, 22, 24, 27, 29, 31, 34, 36, 38, 41, 43, and 45).
# [2] = system: CIA mouse model; experiment: Mouse collagen-induced arthritis (CIA) model, Example 9; format: in vivo; settings: relative to vehicle, p<0.01
# [3] = system: CIA mouse model; experiment: Mouse collagen-induced arthritis (CIA) model, Example 13 (clinical score, histology, serum PYD); format: in vivo; settings: for clinical arthritis scores: FIG. 9; for serum pyridinoline (PYD) levels: vs vehicle control, ELISA, FIG. 12
# [4] = system: human primary monocytes; experiment: Human monocyte viability (CellTiter-Glo ATP); format: cell-based; settings: four days incubation; ATP levels; protein from 293-6E cells; read-out: IC50, inhibition of human monocyte viability
# Description: Primary monocytes were isolated from human peripheral blood mononuclear cells (PBMC) through size sedimentation over Percoll columns as described (de Almeida et al., Mem Inst Oswaldo Cruz 95(2):221-223, (2000)). In this experiment, 1×10^4 freshly isolated human primary monocytes per well of a 96-well plate were incubated with the hCSF1R.506-GS-Fc or hCSF1R.512-GS-Fc fusion protein (0.01-120 nM) and the cells were incubated at 37° C. with 5% CO2. After four days, ATP levels in the cells were determined using the CellTiter-Glo Luminescent Cell Viability Assay Kit (Promega, Cat. No. G7571), according to the manufacturer's instructions, as a measurement of cell viability.
# [5] = target: T1, CSF1 (Homo sapiens, UniProt P09603); experiment: Biacore SPR CSF1 ligand binding affinity and kinetics; settings: proteins expressed in CHO cells; Biacore (Table 4)
# T1 sequence (P09603 33-554): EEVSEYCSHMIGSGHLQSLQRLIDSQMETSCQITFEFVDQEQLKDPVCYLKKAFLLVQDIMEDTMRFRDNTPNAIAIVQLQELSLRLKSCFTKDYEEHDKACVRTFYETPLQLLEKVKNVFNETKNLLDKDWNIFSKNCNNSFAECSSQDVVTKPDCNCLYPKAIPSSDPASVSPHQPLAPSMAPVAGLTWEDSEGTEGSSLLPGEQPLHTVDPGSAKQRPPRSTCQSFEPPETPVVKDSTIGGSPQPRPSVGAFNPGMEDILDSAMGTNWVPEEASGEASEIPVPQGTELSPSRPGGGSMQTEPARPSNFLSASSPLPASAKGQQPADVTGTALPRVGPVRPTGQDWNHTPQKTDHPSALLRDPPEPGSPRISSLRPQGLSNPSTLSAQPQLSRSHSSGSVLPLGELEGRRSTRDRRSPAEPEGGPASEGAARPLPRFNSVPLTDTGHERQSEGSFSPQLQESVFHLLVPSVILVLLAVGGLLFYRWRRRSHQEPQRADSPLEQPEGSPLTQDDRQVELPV
# Description: The CSF1 and IL34 ligand binding affinity and kinetics of the hCSF1R.506-GS-Fc and hCSF1R.512-GS-Fc fusion proteins were determined using Biacore® X surface plasmon resonance (SPR) technology (Uppsala, Sweden). CSF1 and IL34 are the only two ligands known to interact with the CSF1R ECD. The CSF1 and IL34 binding experiments were carried out using methodology similar to that described in Lin et al., Science 320:807-811, (2008).
# In order to compare the relative ligand binding affinity of hCSF1R.506 (SEQ ID NO:2) and hCSF1R.506-Fc (SEQ ID NO:6) proteins expressed in CHO cells to CSF1, a Biacore® assay was used.
# [6] = system: CD115+ GR1- monocytes in the spleen; experiment: Depletion of CD115+ GR1- monocytes from spleen (flow cytometry); format: in vivo, mouse; settings: DBA1 mice, 20 mg/kg i.p. 3 times per week, two weeks
# Description: Male DBA1 mice were administered i.p. 3 times per week with saline or mCSF1R.506-Fc protein (SEQ ID NO:34) at 20 mg/kg. After two weeks of treatment, spleens were harvested for analysis of monocytes by flow cytometry as described (Liu et al., Science 324: 392 (2009)). Cells were stained at 4° C. in PBS with 5% (vol/vol) FBS. An LSR II (Becton Dickinson) was used for multiparameter flow cytometry of stained cell suspensions, followed by analysis with FlowJo software (TreeStar).
# [7] = system: peripheral blood monocytes (F4/80+, CD11b+); experiment: Depletion of mouse monocytes from peripheral blood after minicircle DNA tail vein transfection; format: in vivo; settings: C57BL/6 mouse; 30 ug minicircle DNA by hydrodynamic tail vein transfection; about three weeks; vs saline
# Description: The mCSF1R.506-GS-Fc fusion protein (SEQ ID NO.:34) was expressed in vivo to determine whether it could deplete mouse monocytes from peripheral blood as a measure of in vivo biological activity. For these experiments, the minicircle DNA vector (mCSF1R.506-GS-Fc/p2xC31MasterSfi) containing the polynucleotides encoding mCSF1R.506-GS-Fc described in Example 1 was employed. For these experiments, 30 ug of CSF1R.506-GS-Fc-encoding minicircle DNA was injected into a C57BL/6 mouse tail vein by hydrodynamic tail vein transfection (TVT) as described (Ozaki et al., J Immunol, 173(9):5361-5371 (2004)). Saline was injected as a negative control. Approximately three weeks after the tail vein injection, peripheral blood cells were isolated and monocyte levels were determined using FACS analysis with anti-CD11b and anti-F4/80 antibodies according to the manufacturer's instruction (BD Biosciences) to detect monocyte marker-positive cells (F4/80^+, CD11b^+).
compound,measurement,setting,value
"CN(Cc1cnc2nc(N)nc(N)c2n1)c1ccc(C(=O)N[C@@H](CCC(=O)O)C(=O)O)cc1 [MTX, Methotrexate, reference compound]",reduction in the EAE clinical score,"[1]; 10 mg/kg i.v. q3d, p<0.001",95%
ENBREL® [reference compound],inhibition of CIA arthritis score,[2]; 10 mg/kg i.p. twice weekly for 34 days,about 40%
same,clinical arthritis scores,[3]; 10 mg/kg i.p. daily,inhibited clinical scores
same,serum pyridinoline (PYD) levels,[3]; CIA mice,not significant statistically
hCSF1R.506-GS-Fc: Human CSF1R ECD lacking the six C-terminal residues fused to GS-Fc; SEQ ID NO. 32,IC50,[4],8.8 nM
"hCSF1R.506: human CSF1R ECD corresponding to SEQ ID NO.:2 (amino acids 1-506), without fusion partner",Kd,[5],28.9 nM
same,"ka, binding to CSF1",[5],2.80E+04 l/Ms
same,"kd, binding to CSF1",[5],0.000809 s⁻¹
hCSF1R.512-GS-Fc: Full-length human CSF1R ECD fused to GS-Fc; SEQ ID NO. 31,IC50,[4],17.5 nM
mCSF1R.506-Fc: Mouse CSF1R ECD lacking the five C-terminal residues fused to an Fc; SEQ ID NO. 8,reduction in the EAE clinical score,"[1]; 1 mg/kg i.p. 3 times a week, p<0.001",55%
same,reduction in the EAE clinical score,"[1]; 10 mg/kg i.p. 3 times a week, p<0.01",40%
same,reduction in the EAE clinical score,"[1]; 20 mg/kg i.p. 3 times a week, p<0.001",78%
same,higher body weight relative to vehicle control,"[1]; EAE mice, average of three doses (1, 10, 20 mg/kg), p<0.01-0.001",8%
same,reduction of CIA arthritis score,[2]; 20 mg/kg i.p. daily for 34 days,about 75%
same,"inflammation, pannus formation, cartilage damage, bone resorption scores","[3]; 2 mg/kg, 6 mg/kg and 20 mg/kg, compared to vehicle treated mice, FIG. 11","significantly decreased inflammation, pannus formation, cartilage damage, and bone resorption"
same,clinical arthritis scores,"[3]; 2, 6 and 20 mg/kg i.p., dose-dependent",significantly reduced clinical arthritis scores
same,"pannus formation, cartilage damage, bone resorption in histologic joint sections","[3]; CIA mice, FIG. 10","significantly decreased pannus formation, cartilage damage, and bone resorption"
same,serum pyridinoline (PYD) levels,[3]; CIA mice,significantly lower
same,decrease in number of CD115+GR1- cells per spleen,[6]; FIG. 14,more than 50%
same,CD115+GR1- monocytes in the spleen,"[6]; vs saline, FIG. 13",significant reduction
mCSF1R.506-GS-Fc: Mouse CSF1R ECD lacking the five C-terminal residues fused to GS-Fc; SEQ ID NO. 34,"monocyte marker-positive cells (F4/80+, CD11b+) in peripheral blood",[7],depletion of mouse monocytes from peripheral blood
